Data reported in ChEMBL document CHEMBL3596179, “Structural development of stabilized helical peptides as inhibitors of estrogen receptor (ER)-mediated transcription” (Bioorg Med Chem, 2015).
The source made the active and inactive calls. No cut-off for these calls is given here. Positions of bridges follow the written chain, without caps; N, C: chain ends. Non-standard residues stand in square brackets, D forms with d. Residues, ends and D or L forms follow the SMILES beside them. ξ: configuration not given here. ξtBuAla = CC(C)(C)CC(N)C(=O)O; ξAbu = CCC(N)C(=O)O

What was measured:
T47D = assay: Drug uptake in human T47D cells at 1 uM incubated for 3 hrs by Hoechst 33342 dye based confocal laser scanning microscopy; format: ADME, cell-based
Estrogen receptor = target: T1, Estrogen receptor (Homo sapiens, UniProt P03372)
T1 sequence (P03372 whole entry): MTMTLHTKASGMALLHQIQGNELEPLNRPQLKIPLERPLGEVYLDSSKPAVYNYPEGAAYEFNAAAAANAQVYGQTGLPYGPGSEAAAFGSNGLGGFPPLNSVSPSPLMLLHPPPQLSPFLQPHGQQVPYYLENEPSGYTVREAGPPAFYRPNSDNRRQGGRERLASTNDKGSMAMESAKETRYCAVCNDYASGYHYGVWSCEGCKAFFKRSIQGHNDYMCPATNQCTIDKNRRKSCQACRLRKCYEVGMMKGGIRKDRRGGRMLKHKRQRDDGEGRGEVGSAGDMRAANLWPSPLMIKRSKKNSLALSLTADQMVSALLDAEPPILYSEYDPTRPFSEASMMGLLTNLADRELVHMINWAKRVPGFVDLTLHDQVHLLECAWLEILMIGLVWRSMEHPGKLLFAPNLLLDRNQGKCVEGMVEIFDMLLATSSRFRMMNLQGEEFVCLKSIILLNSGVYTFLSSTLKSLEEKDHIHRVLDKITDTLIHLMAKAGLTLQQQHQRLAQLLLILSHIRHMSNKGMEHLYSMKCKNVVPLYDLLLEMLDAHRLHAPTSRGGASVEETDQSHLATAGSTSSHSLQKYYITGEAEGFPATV
Description: Inhibition of estrogen receptor alpha (unknown origin)-SRC1 coactivator interaction incubated for 1 hr by receptor cofactor assay system based method

[1] = target: T2, Estrogen receptor (Homo sapiens) (UniProt P03372); assay: Inhibition of estrogen receptor-mediated gene expression in human T47D cells assessed as reduction in estrogen-induced pS2 mRNA expression at 3 to 30 uM incubated for 24 hrs by qPCR method; format: cell-based
T2 sequence (whole entry): T1 sequence (P03372 whole entry)

[2] = target: T2, Estrogen receptor (Homo sapiens); assay: Inhibition of estrogen receptor-mediated gene expression in human T47D cells assessed as reduction in estrogen-induced pS2 mRNA expression at 3 uM incubated for 24 hrs by qPCR method; format: cell-based
[3] = target: T2, Estrogen receptor (Homo sapiens); settings: T47D, 10 uM
Description: Inhibition of estrogen receptor-mediated gene expression in human T47D cells assessed as reduction in estrogen-induced pS2 mRNA expression at 10 uM incubated for 24 hrs by qPCR method

| IC50 (Estrogen receptor) | Molecule | other results |
| --- | --- | --- |
| > 1 µM | H-HKILHRLLQGGGRRRRRRR-NH2 | inhibition [1]: inactive |
| 0.035 µM | CC[C@H](C)[C@@H]1NC(=O)[C@H](NC(=O)[C@@H](N)CCCCN)CSSC[C@@H](C(=O)N[C@@H](CCCNC(=N)N)C(=O)N[C@@H](CC(C)C)C(=O)N[C@@H](CC(C)C)C(=O)N[C@@H](CCC(N)=O)C(N)=O)NC(=O)[C@H](CC(C)C)NC1=O (H-K[dC]ILCRLLQ-NH2; disulfide 2-5) | – |
| > 1 µM | N=C(N)NCCC[C@H](NC(=O)[C@H](CCCNC(=N)N)NC(=O)[C@H](CCCNC(=N)N)NC(=O)[C@H](CCCNC(=N)N)NC(=O)[C@H](CCCNC(=N)N)NC(=O)[C@H](CCCNC(=N)N)NC(=O)[C@H](CCCNC(=N)N)NC(=O)[C@@H](N)Cc1ccc(O)cc1)C(N)=O | inhibition [1]: inactive |
| > 1 µM | H-HKILHRLLQ-NH2 | – |
| 0.39 µM | CC[C@H](C)[C@@H]1NC(=O)[C@H](NC(=O)[C@@H](N)CCCNC(=N)N)C/C=C/C[C@@H](C(=O)N[C@@H](CCCNC(=N)N)C(=O)NC(CC(C)(C)C)C(=O)N[C@@H](CC(C)C)C(=O)N[C@@H](CCC(N)=O)C(N)=O)NC(=O)[C@H](CC(C)C)NC1=O (stereo not given in full) | – |
| 0.62 µM | CCC(NC(=O)[C@H](CC(C)C)NC(=O)[C@@H](NC(=O)[C@H](Cc1cnc[nH]1)NC(=O)[C@@H](N)CCCNC(=N)N)[C@@H](C)CC)C(=O)N[C@@H](CCCNC(=N)N)C(=O)NC(CC(C)(C)C)C(=O)N[C@@H](CC(C)C)C(=O)N[C@@H](CCC(N)=O)C(N)=O (stereo not given in full) (H-RHIL[ξAbu]R[ξtBuAla]LQ-NH2) | – |
| > 1 µM | CC[C@H](C)[C@@H]1NC(=O)[C@H](NC(=O)[C@@H](N)CCCNC(=N)N)CCCC[C@@H](C(=O)N[C@@H](CCCNC(=N)N)C(=O)NC(CC(C)(C)C)C(=O)N[C@@H](CC(C)C)C(=O)N[C@@H](CCC(N)=O)C(N)=O)NC(=O)[C@H](CC(C)C)NC1=O (stereo not given in full) | – |
| 0.67 µM | CCC(NC(=O)[C@H](CC(C)C)NC(=O)[C@@H](NC(=O)C(CC)NC(=O)[C@@H](N)CCCNC(=N)N)[C@@H](C)CC)C(=O)N[C@@H](CCCNC(=N)N)C(=O)NC(CC(C)(C)C)C(=O)N[C@@H](CC(C)C)C(=O)NCC(N)=O (stereo not given in full) (H-R[ξAbu]IL[ξAbu]R[ξtBuAla]LG-NH2) | – |

The remaining lines, values behind:

| Molecule | IC50 (Estrogen receptor) | other results |
| --- | --- | --- |
| CC[C@H](C)[C@@H]1NC(=O)[C@H](NC(=O)[C@H](CCCCN)NC(=O)c2ccc3c(c2)C2(OC3=O)c3ccc(O)cc3Oc3cc(O)ccc32)CSSC[C@@H](C(=O)N[C@@H](CCCNC(=N)N)C(=O)N[C@@H](CC(C)C)C(=O)N[C@@H](CC(C)C)C(=O)N[C@@H](CCC(N)=O)C(N)=O)NC(=O)[C@H](CC(C)C)NC1=O | – | Drug uptake (T47D): Not Active |
| CC[C@H](C)[C@@H]1NC(=O)[C@H](NC(=O)[C@@H](N)CCCNC(=N)N)CSSC[C@@H](C(=O)N[C@@H](CCCNC(=N)N)C(=O)NC(CC(C)(C)C)C(=O)N[C@@H](CC(C)C)C(=O)N[C@@H](CCC(N)=O)C(=O)NCC(=O)NCC(=O)NCC(=O)N[C@@H](CCCNC(=N)N)C(=O)N[C@@H](CCCNC(=N)N)C(=O)N[C@@H](CCCNC(=N)N)C(=O)N[C@@H](CCCNC(=N)N)C(=O)N[C@@H](CCCNC(=N)N)C(=O)N[C@@H](CCCNC(=N)N)C(=O)N[C@@H](CCCNC(=N)N)C(N)=O)NC(=O)[C@H](CC(C)C)NC1=O (stereo not given in full) | 0.094 µM | inhibition [2]: 87% |
| CCC(NC(=O)[C@@H](N)CCCNC(=N)N)C(=O)N[C@H](C(=O)N[C@@H](CC(C)C)C(=O)N[C@@H](Cc1cnc[nH]1)C(=O)N[C@@H](CCCNC(=N)N)C(=O)NC(CC(C)(C)C)C(=O)N[C@@H](CC(C)C)C(=O)N[C@@H](CCC(N)=O)C(N)=O)[C@@H](C)CC (stereo not given in full) (H-R[ξAbu]ILHR[ξtBuAla]LQ-NH2) | > 1 µM | – |
| C=CCC(NC(=O)[C@H](CC(C)C)NC(=O)[C@@H](NC(=O)[C@@H](CC=C)NC(=O)[C@@H](N)CCCNC(=N)N)[C@@H](C)CC)C(=O)N[C@@H](CCCNC(=N)N)C(=O)NC(CC(C)(C)C)C(=O)N[C@@H](CC(C)C)C(=O)N[C@@H](CCC(N)=O)C(N)=O (stereo not given in full) | > 1 µM | – |
| CC[C@H](C)[C@@H]1NC(=O)[C@H](NC(=O)[C@@H](N)CCCNC(=N)N)C/C=C\C[C@@H](C(=O)N[C@@H](CCCNC(=N)N)C(=O)NC(CC(C)(C)C)C(=O)N[C@@H](CC(C)C)C(=O)N[C@@H](CCC(N)=O)C(=O)NCC(=O)NCC(=O)NCC(=O)N[C@@H](CCCNC(=N)N)C(=O)N[C@@H](CCCNC(=N)N)C(=O)N[C@@H](CCCNC(=N)N)C(=O)N[C@@H](CCCNC(=N)N)C(=O)N[C@@H](CCCNC(=N)N)C(=O)N[C@@H](CCCNC(=N)N)C(=O)N[C@@H](CCCNC(=N)N)C(N)=O)NC(=O)[C@H](CC(C)C)NC1=O (stereo not given in full) | – | inhibition [1]: inactive |
| CC[C@H](C)[C@@H]1NC(=O)[C@H](NC(=O)[C@@H](N)CCCNC(=N)N)C/C=C/C[C@@H](C(=O)N[C@@H](CCCNC(=N)N)C(=O)NC(CC(C)(C)C)C(=O)N[C@@H](CC(C)C)C(=O)N[C@@H](CCC(N)=O)C(=O)NCC(=O)NCC(=O)NCC(=O)N[C@@H](CCCNC(=N)N)C(=O)N[C@@H](CCCNC(=N)N)C(=O)N[C@@H](CCCNC(=N)N)C(=O)N[C@@H](CCCNC(=N)N)C(=O)N[C@@H](CCCNC(=N)N)C(=O)N[C@@H](CCCNC(=N)N)C(=O)N[C@@H](CCCNC(=N)N)C(N)=O)NC(=O)[C@H](CC(C)C)NC1=O (stereo not given in full) | – | inhibition [1]: inactive |
| CC[C@H](C)[C@@H]1NC(=O)[C@H](NC(=O)[C@@H](N)CCCNC(=N)N)CSSC[C@@H](C(=O)N[C@@H](CCCNC(=N)N)C(=O)NC(CC(C)(C)C)C(=O)N[C@@H](CC(C)C)C(=O)N[C@@H](CCC(N)=O)C(N)=O)NC(=O)[C@H](CC(C)C)NC1=O (stereo not given in full) | 0.013 µM | – |
| CC[C@H](C)[C@@H]1NC(=O)[C@H](NC(=O)[C@@H](N)CCCCN)CSSC[C@@H](C(=O)N[C@@H](CCCNC(=N)N)C(=O)N[C@@H](CC(C)C)C(=O)N[C@@H](CC(C)C)C(=O)N[C@@H](CCC(N)=O)C(=O)NCC(=O)NCC(=O)NCC(=O)N[C@@H](CCCNC(=N)N)C(=O)N[C@@H](CCCNC(=N)N)C(=O)N[C@@H](CCCNC(=N)N)C(=O)N[C@@H](CCCNC(=N)N)C(=O)N[C@@H](CCCNC(=N)N)C(=O)N[C@@H](CCCNC(=N)N)C(=O)N[C@@H](CCCNC(=N)N)C(N)=O)NC(=O)[C@H](CC(C)C)NC1=O | 0.749 µM | inhibition [2]: 20%; inhibition [3]: 95% |
| CC[C@H](C)[C@@H]1NC(=O)[C@H](NC(=O)[C@H](CCCCN)NC(=O)c2ccc3c(c2)C2(OC3=O)c3ccc(O)cc3Oc3cc(O)ccc32)CSSC[C@@H](C(=O)N[C@@H](CCCNC(=N)N)C(=O)N[C@@H](CC(C)C)C(=O)N[C@@H](CC(C)C)C(=O)N[C@@H](CCC(N)=O)C(=O)NCC(=O)NCC(=O)NCC(=O)N[C@@H](CCCNC(=N)N)C(=O)N[C@@H](CCCNC(=N)N)C(=O)N[C@@H](CCCNC(=N)N)C(=O)N[C@@H](CCCNC(=N)N)C(=O)N[C@@H](CCCNC(=N)N)C(=O)N[C@@H](CCCNC(=N)N)C(=O)N[C@@H](CCCNC(=N)N)C(N)=O)NC(=O)[C@H](CC(C)C)NC1=O | – | Drug uptake (T47D): Active |
| CC[C@H](C)[C@@H]1NC(=O)[C@H](NC(=O)[C@H](CCCNC(=N)N)NC(=O)CNC(=O)CNC(=O)CNC(=O)[C@H](CCCNC(=N)N)NC(=O)[C@H](CCCNC(=N)N)NC(=O)[C@H](CCCNC(=N)N)NC(=O)[C@H](CCCNC(=N)N)NC(=O)[C@H](CCCNC(=N)N)NC(=O)[C@H](CCCNC(=N)N)NC(=O)[C@@H](N)CCCNC(=N)N)CSSC[C@@H](C(=O)N[C@@H](CCCNC(=N)N)C(=O)NC(CC(C)(C)C)C(=O)N[C@@H](CC(C)C)C(=O)N[C@@H](CCC(N)=O)C(N)=O)NC(=O)[C@H](CC(C)C)NC1=O (stereo not given in full) | > 1 µM | inhibition [1]: inactive |
| CC[C@H](C)[C@@H]1NC(=O)[C@H](NC(=O)[C@@H](N)CCCNC(=N)N)C/C=C\C[C@@H](C(=O)N[C@@H](CCCNC(=N)N)C(=O)NC(CC(C)(C)C)C(=O)N[C@@H](CC(C)C)C(=O)N[C@@H](CCC(N)=O)C(N)=O)NC(=O)[C@H](CC(C)C)NC1=O (stereo not given in full) | 0.11 µM | – |
